Source: patent US7696339B2, “Nucleic acid encoding monkey QRFP” (Banyu Pharmaceutical Co., Ltd., priority 2004, dated 2010)
Square brackets hold non-standard residues; d marks the D form. pGlu = O=C1CC[C@@H](C(=O)O)N1

Experiments:
Format in all cases: cell-based
monkey GPR103 = assay: Intracellular calcium ion concentration increasing activity (FLIPR) in monkey GPR103 gene-expressing CHO cells; details: Fluo4, read-out: 50% effective concentration, intracellular calcium ion concentration increasing activity
Method: (§1) CHO cells were transfected with pEF1/V5-HisB plasmid vector carrying the monkey GPR103 gene or human GPR103 gene obtained in Example 1 and the same vector without the insert (mock), and Geneticin (Invitrogen Corp.) was added to the medium to a final concentration of 2 mg/ml for selection of expressing cells. Next, the monkey or human GPR103 gene-expressing cells were singly cloned by the limiting dilution method and supplied for the following test. The monkey QRFP43 and QRFP26 synthesized by the method described in Example 6 were also supplied for the test.
(§2) After 24 hours of culturing, the cells were seeded in a 96-well poly-D-lysine coated black culture plate (Becton Dickinson) at 2.5×10^4 cells/well and cultured for two nights. […] Different concentrations of monkey QRFP43 or QRFP26 dissolved in the assay buffer were also set in the FLIPR, and then a sample was added to the cells and the change in intracellular calcium ion concentration-dependent fluorescence produced by irradiation with exciting light was measured.
(§3) Defining the change in fluorescence as the difference between the fluorescence immediately before addition of monkey QRFP43 or QRFP26 and the maximum value after addition, a Prism Version 4.00 (GraphPad) was used to graph the change in fluorescence due to each concentration of peptide (protein), and the 50% effective concentration was determined.

human GPR103 = target: T1, human GPR103 (Homo sapiens, UniProt Q96P65); assay: Intracellular calcium ion concentration increasing activity (FLIPR) in human GPR103 gene-expressing CHO cells; details: Fluo4, read-out: 50% effective concentration, intracellular calcium ion concentration increasing activity
T1 construct: expressed in transfected cells; host or cells: CHO cells, Geneticin-selected, single clone by limiting dilution
T1 sequence (Q96P65 1-431): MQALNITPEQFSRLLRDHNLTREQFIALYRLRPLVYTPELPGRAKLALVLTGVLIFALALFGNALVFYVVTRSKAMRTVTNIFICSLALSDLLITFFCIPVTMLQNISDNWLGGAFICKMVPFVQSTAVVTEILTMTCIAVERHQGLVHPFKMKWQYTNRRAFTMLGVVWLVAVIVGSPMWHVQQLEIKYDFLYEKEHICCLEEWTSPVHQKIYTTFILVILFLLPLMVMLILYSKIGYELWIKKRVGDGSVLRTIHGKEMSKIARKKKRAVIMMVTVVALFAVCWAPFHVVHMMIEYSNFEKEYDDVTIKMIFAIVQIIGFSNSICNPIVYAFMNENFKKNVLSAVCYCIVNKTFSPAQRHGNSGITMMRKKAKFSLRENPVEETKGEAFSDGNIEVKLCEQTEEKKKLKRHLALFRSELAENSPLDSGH
Method: as §1, §2, §3

[1] = test system: CHO cells transfected with the mock vector; assay: Intracellular calcium ion concentration change in CHO cells transfected with the mock vector
Method: as §1, §2, §3

| EC50 (monkey GPR103) [nM] | EC50 (human GPR103) [nM] | Substance | change in intracellular calcium ion concentration [1] |
| --- | --- | --- | --- |
| 9.2 | 1.7 | H-ASGPLGNLAEELNGYSRKKGGFSFRF-NH2 [monkey QRFP26] | no change |
| 69 | 58 | [pGlu]DEGSEADDFLPAGGVKASGPLGNLAEELNGYSRKKGGFSFRF-NH2 [monkey QRFP43] | no change |
